We go through 27 compounds from patent EP4434982A1, “(S)-2-(2-METHYLAZETIDIN-1-YL)PYRIMIDINE DERIVATIVE AND PHARMACEUTICAL COMPOSITION COMPRISING SAME” (LG Chem, Ltd., priority 2021, dated 2023).

The test deals with T1, Ketohexokinase (KHK) (Homo sapiens, UniProt P50053).
T1 construct: His tag; made in house; host or cells: E. coli
T1 sequence (P50053 1-298): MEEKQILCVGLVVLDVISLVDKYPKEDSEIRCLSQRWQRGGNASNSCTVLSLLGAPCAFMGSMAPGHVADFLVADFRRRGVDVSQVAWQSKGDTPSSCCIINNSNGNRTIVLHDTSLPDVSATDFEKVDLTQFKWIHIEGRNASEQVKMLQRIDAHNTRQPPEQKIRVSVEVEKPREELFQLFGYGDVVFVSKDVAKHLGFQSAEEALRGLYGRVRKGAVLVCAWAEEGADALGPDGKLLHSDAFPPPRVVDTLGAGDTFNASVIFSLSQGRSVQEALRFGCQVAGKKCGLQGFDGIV
Put plainly: measurement of activity in vitro of ketohexokinase inhibitor (Transcreener ADP2 TR-FRET Red Assay, ADP produced). To be noted: KHK pre-reacted with inhibitor 30 minutes, then substrate (ATP, fructose) 15 minutes; Ki by Morrison equation. The class given is biochemical. As to the method: Ketohexokinase (KHK) was expressed in E. Coli and purified using His tag. In order to measure the activity of the purified KHK, Transcreener ADP2 TR-FRET Red Assay kit of BellBrook Labs was used. A method of measuring the amount of ADP produced was used using TR-FRET after reacting a solution including a suitable concentration of KHK protein and ATP, and fructose for 15 minutes. In order to see the activity of a ketohexokinase (KHK) inhibitor, ketohexokinase (KHK) and a suitable concentration of an inhibitor were reacted first for 30 minutes, and then, reacted with a solution including the substrate of ketohexokinase (KHK) for 15 minutes. Then, reaction for TR-FRET was performed for 1 hour, and fluorescence was measured using Envision equipment of PerkinElmer. According to the optimization procedure of TR-FRET published by BellBrook Lab, the set value of the Envision equipment was determined.
The result values by concentration of the ketohexokinase (KHK) inhibitor were determined as the ratio of a wavelength of 665 nm and a wavelength of 615nm. The 665/615 ratio value by concentration of each inhibitor was converted to ADP concentration based on ADP standard curve, and inhibition activity Ki value was obtained using Morrison equation by statistical software (Prizm). Meanwhile, the Ki value is a value representing the binding affinity of the inhibitor and an enzyme, and a lower value means better inhibitory activity.
Take `C[C@H]1CCN1c1nc(N2CC(OCC(=O)N3CCNCC3)C2)c(Cl)c(C(F)(F)F)n1` [Example 2, (S)-2-((1-(5-chloro-2-(2-methylazetidin-1-yl)-6-(trifluoromethyl)pyrimidin-4-yl)azetidin-3-yl)oxy)-1-(piperazin-1-yl)ethan-1-one]: the Ki was ≤ 10 nM.
Turning to `C[C@H]1CCN1c1nc(-c2ccc(CC(=O)N3CCNCC3)nc2)cc(C(F)(F)F)n1` [Example 31], the Ki was ≤ 10 nM.
Regarding `Cc1c(N2CC(OCC(=O)N3CCNCC3)C2)nc(N2CC[C@@H]2C)nc1C(F)(F)F` [Example 26, (S)-2-((1-(5-methyl-2-(2-methylazetidin-1-yl)-6-(trifluoro)pyrimidin-4-yl)azetidin-3-yl)oxy)-1-(piperazin-1-yl)ethan-1-one], the Ki was ≤ 10 nM.
The same measure for `C[C@H]1CCN1c1nc(N2CC(OCC(=O)N3CCNCC3)C2)c2c(n1)C(F)(F)CC2` [Example 3, (S)-2-((1-(7,7-difluoro-2-(2-methylazetidin-1-yl)-6,7-dihydro-5H-cyclopenta[d]pyrimidin-4-yl)azetidin-3-yl)oxy)-1-(piperazin-1-yl)ethan-1-one]: ≤ 10 nM; for `C[C@H]1CCN1c1nc(N2CCN(CC(=O)N3CCOCC3)CC2)c2c(n1)C(F)(F)CC2` [Example 14, (S)-2-4-(7,7-difluoro-2-(2-methylazetidin-1-yl)-6,7-dihydro-5H-cyclopenta[d]pyrimidin-1-yl)-1-(piperazin-1-yl)morpholinoethan-1-one]: 10 to 100 nM.
The same measure for `C[C@H]1CCN1c1nc(N2CC[C@H](OCC(=O)N3CCNCC3)C2)c2c(n1)C(F)(F)CC2` [Example 7, 2-(((2S,3R)-1-(7,7-difluoro-2-((S)-2-methylazetidin-1-yl)-6,7-dihydro-5H-cyclopenta[d]pyrimidin-4-yl)pyrrolidin-3-yl)oxy)-1-(piperazin-1-yl)ethan-1-one]: ≤ 10 nM; for `C[C@H]1CCN1c1nc(N2C[C@H]3C[C@@H](C2)[C@@H]3CC(=O)N2CCNCC2)c2c(n1)C(F)(F)CC2` [Example 21, 2-((1R,5S,6S)-3-(7,7-difluoro-2-((S)-2-methylazetidin-1-yl)-6,7-dihydro-5H-cyclopenta[d]pyrimidin-4-yl)-3-azabicyclo[3.1.0]heptan-6-yl)-1-(piperazin-1-yl)ethan-1-one]: ≤ 10 nM.
The compound `CC(=O)N1CCN(C(=O)C[C@@H]2[C@@H]3C[C@H]2CN(c2nc(N4CC[C@@H]4C)nc4c2CCC4(F)F)C3)CC1` [Example 22, 1-(4-acetylpiperazin-1-yl)-2-((1R,5S,6S)-3-(7,7-difluoro-2-((S)-2-methylazetidin-1-yl)-6,7-dihydro-5H-cyclopenta[d]pyrimidin-4-yl)-3-azabicyclo[3.1.1]heptan-6-yl)ethan-1-one] returned a Ki of 100 to 1000 nM.
The same measure for `C[C@H]1CCN1c1nc(N2C[C@@H](OCC(=O)N3CCNCC3)[C@@H]2C)c2c(n1)C(F)(F)CC2` [Example 5, 2-(((2S,3R)-1-(7,7-difluoro-2-((S)-2-methylazetidin-1-yl)-6,7-dihydro-5H-cyclopenta[d]pyrimidin-4-yl)-2-methylazetidin-3-yl)oxy)-1-(piperazin-1-yl)ethan-1-one]: 10 to 100 nM; for `C[C@H]1CCN1c1nc(N2CCN(CC(=O)N3CCNCC3)C(=O)C2)c2c(n1)C(F)(F)CC2` [Example 16, (S)-4-(7,7-difluoro-2-(2-methylazetidin-1-yl)-6,7-dihydro-5H-cyclopenta[d]pyrimidin-4-yl)-1-(2-oxo-2-(piperazin-1-yl)ethyl)piperazin-2-one]: ≤ 10 nM.
`C[C@H]1CCN1c1nc(C2CCN(CC(=O)N3CCNCC3)CC2)c2c(n1)C(F)(F)CC2` [Example 17, (S)-2-(4-(7,7-difluoro-2-(2-methylazetidin-1-yl)-6,7-dihydro-5H-cyclopenta[d]pyrimidin-4-yl)piperidin-1-yl)-1-(piperazin-1-yl)ethan-1-one]: the Ki is ≤ 10 nM.
The compound `C[C@H]1CCN1c1nc(N2CCC(OCC(=O)N3CCNCC3)CC2)cc(C(F)(F)F)n1` [Example 27] had a Ki of 10 to 100 nM.
In the case of `C[C@H]1CCN1c1nc(N2CCN(CC(=O)N3CCNCC3)CC2)cc(C(F)(F)F)n1` [Example 11, (S)-2-(4-(2-(2-methylazetidin-1-yl)-6-(trifluoromethyl)pyrimidin-4-yl)piperazin-1-yl)-1-(piperazin-1-yl)ethan-1-one], the Ki is ≤ 10 nM.
Turning to `Cc1c(N2CCC(OCC(=O)N3CCNCC3)CC2)nc(N2CC[C@@H]2C)nc1C(F)(F)F` [Example 28], the Ki fell in the range of 10 to 100 nM.
In turn, `C[C@H]1CCN1c1nc(N2CC[C@H](OCC(=O)N3CCNCC3)C2)cc(C(F)(F)F)n1` [Example 6, 2-(((S)-1-(2-((S)-2-methylazetidin-1-yl)-6-(trifluoromethyl)pyrimidin-4-yl)pyrrolidin-3-yl)oxy)-1-(piperazin-1-yl)ethan-1-one] came in with a Ki of 100 to 1000 nM.
The same measure for `C[C@H]1CCN1c1nc(N2C[C@@H]3[C@@H](CC(=O)N4CCNCC4)[C@@H]3C2)c2c(n1)C(F)(F)CC2` [Example 18, 2-((1R,5S,6R)-3-(7,7-difluoro-2-((S)-2-methylazetidin-1-yl)-6,7-dihydro-5H-cyclopenta[d]pyrimidin-4-yl)-3-azabicyclo[3.1.0]hexan-6-yl)-1-(piperazin-1-yl)ethan-1-one]: ≤ 10 nM; for `C[C@H]1CCN1c1nc(N2CC(OCC(=O)N3CCNCC3)C2)c2c(n1)C(F)(F)CCC2` [Example 4]: 10 to 100 nM; for `C[C@H]1CCN1c1nc(N2CCC(OCC(=O)N3CCNCC3)CC2)c2c(n1)C(F)(F)CC2` [Example 10, (S)-2-((1-(7,7-difluoro-2-(2-methylazetidin-1-yl)-6,7-dihydro-5H-cyclopenta[d]pyrimidin-4-yl)piperidin-4-yl)oxy)-1-(piperazin-1-yl)ethan-1-one]: ≤ 10 nM.
The compound `C[C@H]1CCN1c1nc(N2CCN(CC(=O)N3CCNCC3)C(=O)C2)cc(C(F)(F)F)n1` [Example 12, (S)-4-(2-(2-methylazetidin-1-yl)-6-(trifluoromethyl)pyrimidin-4-yl)-1-(2-oxo-2-(piperazin-1-yl)ethyl)piperazin-2-one] displayed a Ki of 10 to 100 nM.
`C[C@H]1CCN1c1nc(-c2ccc(CC(=O)N3CCNCC3)cc2)c2c(n1)C(F)(F)CC2` [Example 30, (S)-2-(4-(7,7-difluoro-2-(2-methylazetidin-1-yl)-6,7-dihydro-5H-cyclopenta[d]pyrimidin-4-yl)phenyl)-1-(piperazin-1-yl)ethan-1-one]: the Ki was ≤ 10 nM.
Regarding `C[C@H]1CCN1c1nc(-c2ccc(CC(=O)O)cc2)c2c(n1)C(F)(F)CC2` [Example 29], the Ki lay in the range of 10 to 100 nM.
The same measure for `Cc1c(-c2ccc(OCC(=O)N3CCNCC3)nc2)nc(N2CC[C@@H]2C)nc1C(F)(F)F` [Example 40, (S)-2-((5-(5-methyl-2-(2-methylazetidin-1-yl)-6-(trifluoromethyl)pyrimidin-4-yl)pyridin-2-yl)oxy)-1-(piperazin-1-yl)ethan-1-one]: ≤ 10 nM; for `C[C@H]1CCN1c1nc(N2C[C@@H]3[C@@H](CC(=O)N4CCN(C)CC4)[C@@H]3C2)c2c(n1)C(F)(F)CC2` [Example 19, 2-((1R,5S,6R)-3-(7,7-difluoro-2-((S)-2-methylazetidin-1-yl)-6,7-dihydro-5H-cyclopenta[d]pyrimidin-4-yl)-3-azabicyclo[3.1.0]hexan-6-yl)-1-(4-methylpiperazin-1-yl)ethan-1-one]: ≤ 10 nM; for `C[C@H]1CCN1c1nc(N2C[C@H]3C[C@@H](C2)[C@@H]3CC(=O)N2CCNCC2)c2c(n1)C(F)(F)OCC2` [Example 24, 2-((1R,5S,6S)-3-(8,8-difluoro-2-((S)-2-methylazetidin-1-yl)-5,8-dihydro-6H-pyrazol[3,4-d]pyrimidin-4-yl)-3-azabicyclo[3.1.1]heptan-6-yl)-1-(piperazin-1-yl)ethan-1-one]: 10 to 100 nM.
With `CC1CCN1c1nc(N2CC3CC(C2)C3CC(=O)N2CCNCC2)c2c(n1)C(F)(F)CCC2` [Example 23, 2-((1R,5S,6S)-3-(8,8-difluoro-2-((S)-2-methylazetidin-1-yl)-5,6,7,8-tetrahydroquinazolin-4-yl)-3-azabicyclo[3.1.1]heptan-6-yl)-1-(piperazin-1-yl)ethan-1-one] the figure was 10 to 100 nM; with `C[C@H]1CCN1c1nc(N2C[C@@H]3[C@H](C2)[C@H]3CS(=O)(=O)N2CCNCC2)c2c(n1)C(F)(F)CC2` [Example 25, 7,7-difluoro-2-((S)-2-methylazetidin-1-yl)-4-((1R,5S,6S)-6-((piperazin-1-ylsulfonyl)methyl)-3-azabicyclo[3.1.0]hexan-3-yl)-6,7-dihydro-5H-cyclopenta[d]pyrimidine], ≤ 10 nM; with `C[C@H]1CCN1c1nc(-c2ccc(OCC(=O)N3CCNCC3)nc2)cc(C(F)(F)F)n1` [Example 39, (S)-2-((5-(2-(2-methylazetidin-1-yl)-6-(trifluoromethyl)pyrimidin-4-yl)pyridin-2-yl)oxy)-1-(piperazin-1-yl)ethan-1-one], ≤ 10 nM.
